The structures appear in SMILES notation.

Usually EC50 stands for the concentration at which the effect is half-maximal.

The target of one assay is T1, hT1R2/T1R3 taste receptor (Homo sapiens, UniProt Q7RTX0+Q8TE23).
T1 sequence (Q8TE23 20-839): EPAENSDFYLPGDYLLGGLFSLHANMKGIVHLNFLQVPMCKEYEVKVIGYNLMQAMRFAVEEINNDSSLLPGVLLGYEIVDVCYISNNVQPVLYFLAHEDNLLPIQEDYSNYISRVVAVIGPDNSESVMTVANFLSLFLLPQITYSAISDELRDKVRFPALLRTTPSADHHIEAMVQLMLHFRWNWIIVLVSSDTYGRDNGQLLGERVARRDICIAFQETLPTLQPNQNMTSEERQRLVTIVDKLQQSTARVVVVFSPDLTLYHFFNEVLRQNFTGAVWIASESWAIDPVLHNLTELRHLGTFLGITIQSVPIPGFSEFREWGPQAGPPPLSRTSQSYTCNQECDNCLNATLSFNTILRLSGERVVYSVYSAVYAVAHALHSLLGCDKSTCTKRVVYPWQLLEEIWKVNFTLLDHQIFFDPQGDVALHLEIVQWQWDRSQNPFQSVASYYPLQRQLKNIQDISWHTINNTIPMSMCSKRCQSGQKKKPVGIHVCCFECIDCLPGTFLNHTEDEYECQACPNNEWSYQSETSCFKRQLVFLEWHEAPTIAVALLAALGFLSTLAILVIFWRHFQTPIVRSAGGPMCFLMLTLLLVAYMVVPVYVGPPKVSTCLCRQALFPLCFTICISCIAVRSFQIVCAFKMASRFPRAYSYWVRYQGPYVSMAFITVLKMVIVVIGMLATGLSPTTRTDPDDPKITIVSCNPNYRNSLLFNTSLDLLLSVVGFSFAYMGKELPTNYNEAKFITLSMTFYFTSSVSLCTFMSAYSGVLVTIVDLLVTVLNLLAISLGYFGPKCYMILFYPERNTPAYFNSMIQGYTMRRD
T1 sequence (Q7RTX0 21-852): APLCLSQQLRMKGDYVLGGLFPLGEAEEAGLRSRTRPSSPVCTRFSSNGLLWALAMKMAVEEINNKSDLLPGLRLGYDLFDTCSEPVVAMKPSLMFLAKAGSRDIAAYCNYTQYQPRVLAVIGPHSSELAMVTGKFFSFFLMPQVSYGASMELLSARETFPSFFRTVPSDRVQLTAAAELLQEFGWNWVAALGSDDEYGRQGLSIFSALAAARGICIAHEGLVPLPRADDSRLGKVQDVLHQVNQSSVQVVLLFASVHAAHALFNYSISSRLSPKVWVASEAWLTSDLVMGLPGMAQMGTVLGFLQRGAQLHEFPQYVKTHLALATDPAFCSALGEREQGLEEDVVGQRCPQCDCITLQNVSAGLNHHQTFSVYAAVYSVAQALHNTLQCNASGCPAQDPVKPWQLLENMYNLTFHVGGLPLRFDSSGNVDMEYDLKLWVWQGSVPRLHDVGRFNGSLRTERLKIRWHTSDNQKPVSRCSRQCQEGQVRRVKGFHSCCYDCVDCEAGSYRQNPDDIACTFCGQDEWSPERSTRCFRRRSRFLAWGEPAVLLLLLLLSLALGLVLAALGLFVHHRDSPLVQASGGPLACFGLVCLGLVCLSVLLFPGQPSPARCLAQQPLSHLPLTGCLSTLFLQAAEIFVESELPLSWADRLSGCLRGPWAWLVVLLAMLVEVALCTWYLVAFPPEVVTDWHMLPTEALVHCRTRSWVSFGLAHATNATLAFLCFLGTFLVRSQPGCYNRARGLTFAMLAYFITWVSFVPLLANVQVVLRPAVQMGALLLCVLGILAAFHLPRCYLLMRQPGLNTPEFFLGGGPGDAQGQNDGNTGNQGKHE
The experiment in a line: agonist activity against the hT1R2/T1R3 taste receptor (sweet receptor based assay). Type of assay: cell-based.
Conditions: not given
How it is done:
Compounds described in this application show moderate to potent agonist effect on the sweet receptor based assay. Potencies (EC50 values, e.g. see Tables 1-3) for agonist activity were measured against the hT1R2/T1R3 taste receptor. FIG. 1 exemplifies the data generated during the screening to determine EC50 values.
Take `CCC(C)(C)NC(=O)C(C)(C)N1CCC(C#N)(c2cccc(F)c2F)CC1` [Compound 127]: the 50% effective concentration (EC50) is 1.5 µM.
Same read-out and setting: under `CC(C)CNC(=O)C(C)(C)N1CCC(C#N)(c2cccc(F)c2F)CC1` [Compound 79, 2-(4-cyano-4-(2,3-difluorophenyl)piperidin-1-yl)-N-isobutyl-2-methylpropanamide] stands 1.6 µM.

The assay is the same for the next values; noted with them: agonist activity, hT1R2/T1R3; read-out: Sweet EC50.
Regarding `CC(C)CNC(=O)C(C)(C)N1CCN(c2c(F)cccc2F)CC1` [Compound 42], the EC50 was greater than 10 µM.
Take `Cc1cccc(N2CCN(C(C)(C)C(=O)NCC3CCCC3)CC2)c1C` [Compound 15]: the EC50 came out at 6.9 µM.
For `CC(C)CNC(=O)C(C)(C)N1CCC(c2ccccc2)CC1` [Compound 80, N-isobutyl-2-methyl-2-(4-phenylpiperidin-1-yl)propanamide], the EC50 was found to be 0.7 µM.
Turning to `COCc1ccc(C2=CCN(C(C)(C)C(=O)NCC(C)C)CC2)c(F)c1` [Compound 69], the EC50 is greater than 10 µM.
On the same count and under the same terms, the result for `CC(C)CNC(=O)C(C)(C)N1CCC(c2cccc3c2OCO3)CC1` [Compound 104] reads 1.7 µM.
The same measure, in the same setting: under `CC(C)(C(=O)NC1CCC1)N1CCC(c2ccccc2)CC1` [Compound 83] stands greater than 10 µM.
Still for that read-out and setting: under `CC(C)CNC(=O)C(C)(C)N1CCC(CO)(c2ccccc2)CC1` [Compound 119] stands greater than 10 µM; under `CC(C)CNC(=O)C(C)(C)N1CCN(c2cnccn2)CC1` [Compound 54], greater than 10 µM.
Consider `CC(C)CNC(=O)C(C)(C)N1CCC(c2ccccc2C(=O)N(C)C)CC1` [Compound 105], for which the 50% effective concentration (EC50) was greater than 10 µM.
Still for that read-out and setting: the result for `CC(C)CNC(=O)C(C)(C)N1CCCC(c2ccccc2)CC1` (centres unmarked) [Compound 117] reads 10.9 µM; that for `CC(C)CNC(=O)C(C)(C)N1CCN(c2ccc(F)cc2F)CC1` [Compound 37], greater than 10 µM.
The same measure, in the same setting: the result for `Cc1cccc(N2CCN(C(C)(C)C(=O)NCC3CC3)CC2)c1C` [Compound 14] reads 5 µM.
On the same count and under the same terms, the result for `COc1cccc(C2CCN(C(C)(C)C(=O)NCC(C)C)CC2)c1F` [Compound 100] reads 1.4 µM.
Regarding `CC(C)CNC(=O)C(C)(C)N1CC=C(c2cccc3c2OCO3)CC1` [Compound 72], the EC50 is greater than 10 µM.
The same measure, in the same setting: the result for `COCc1ccccc1N1CCN(C(C)(C)C(=O)NCC(C)C)CC1` [Compound 47] reads 6.8 µM; that for `CC(C)CNC(=O)C(C)(C)N1CC=C(c2cccc(C(=O)N(C)C)c2)CC1` [Compound 74], greater than 10 µM; that for `CC(C)CNC(=O)C(C)(C)N1CCN(c2ccccn2)CC1` [Compound 53], greater than 10 µM.
The same measure, in the same setting: the result for `CC(C)CNC(=O)C(C)(C)N1CCC(c2ccccc2F)CC1` [Compound 91] reads 0.4 µM; that for `Cc1cccc(C2=CCN(C(C)(C)C(=O)NCC(C)C)CC2)n1` [Compound 77], greater than 10 µM; that for `CC(C)CNC(=O)C(C)(C)N1CCC(c2cccc(CO)c2F)CC1` [Compound 99], 4.7 µM.
Take `Cc1cccc(C2CCN(C(C)(C)C(=O)NCC(C)C)CC2)n1` [Compound 109]: the EC50 was 5.1 µM.
Same read-out and setting: under `CC(C)CNC(=O)C(C)(C)N1CCC(O)(c2ccccc2)CC1` [Compound 123] stands greater than 10 µM; under `COCc1cccc(C2=CCN(C(C)(C)C(=O)NCC(C)C)CC2)c1F` [Compound 60], 1.2 µM; under `COCc1cccc(C2CCN(C(C)(C)C(=O)NCC(C)C)CC2)c1F` [Compound 95], 0.5 µM.
Still for that read-out and setting: the result for `CCC(C)(C)NC(=O)C(C)(C)N1CCN(c2cccc(C)c2C)CC1` [Compound 19] reads greater than 10 µM.
Consider `CC(C)CNC(=O)C(C)(C)N1CC=C(c2cccc(CO)c2F)CC1` [Compound 66], for which the concentration giving a half-maximal response (EC50) is greater than 10 µM.
Same read-out and setting: the result for `CC(C)CNC(=O)C(C)(C)N1CC=C(c2ccccc2C(=O)N(C)C)CC1` [Compound 73] reads greater than 10 µM; that for `CC(C)CNC(=O)C(C)(C)N1CCC(c2cccc(F)c2)CC1` [Compound 96], 0.6 µM; that for `Cc1cccc(N2CCN(C(C)(C)C(=O)NCCC(C)C)CC2)c1C` [Compound 26], 8 µM.
On the same count and under the same terms, under `COCCNC(=O)C(C)(C)N1CCN(c2cccc(C)c2C)CC1` [Compound 22] stands greater than 10 µM.

These data come from US20250280861A1, “SWEETENER COMPOSITIONS” (Firmenich Incorporated, priority 2022, published 2025).
